Results reported in US8993247B2, “Assay for vascular calcification” (King's College London, priority 2010, dated 2015).

Key:
[1] = tested on: human smooth muscle cells; type: cell-based
Protocol: A—VSMCs were incubated in the absence or presence of high Ca/P (2.5 mM Ca and 2.5 mM P) in 2% FBS/M199 media for 5 days and subjected to alizarin D staining Quantification shown graphically in B. Mean±SD, n=3. C—pictures of VSMCs were taken using light microscopy of alizarin-D stained VSMCs. 1.5—BSA control; 2.6−+5 mM GW4869; 3.7−+1.3% DSMO; 4.8−+1 uM Y-27632.

[2] = tested on: human smooth muscle cells; experiment: Matrix vesicle release by VSMCs (western blot of CD63 and Fetuin A in MV lysates, CD63 densitometry); type: cell-based; details: matrix vesicle markers CD63 and Fetuin A in MV lysates, n=3
Protocol: Panel B, quantification of matrix vesicle release by VSMCs was performed using densitometry analysis of CD63, presented in MV as defined by western-blot analysis (shown in A). Mean±SD, n=3.

[3] = tested on: VSMCs
Protocol: A—apoptosis of VSMCs in the presence of GW4869 as detected by AnnexinV-FITC binding VSMC were treated with 5 mM GW4869 in the absence or presence of high Ca/P and the level of apoptosis was determined by phospahtidylserine externalization.
VSMCs were cultured in the presence or absence of GW4869 and with or without high Ca and P in the media containing 2% serum for 5 days.
We therefore compared an effect of GW4869 on cell survival in the presence of raised extracellular concentrations of Ca and P in the media containing 2% serum.

Compound	number of VSMCs in wells [1]	matrix vesicles release by human smooth muscle cells [2]	apoptosis of GW4869-treated VSMCs with high Ca and P compared with without [3]	calcification of VSMCs ([1]; high Ca/P (2.5 mM Ca and 2.5 mM P), media with 2% serum, 5 days, 5 mM GW4869, 1 uM Y-27632)
Cl.Cl.O=C(/C=C/c1ccc(/C=C/C(=O)Nc2ccc(C3=NCCN3)cc2)cc1)Nc1ccc(C2=NCCN2)cc1 [GW4869]	dramatic reduction in the number of VSMCs	inhibition of matrix vesicles release	not increased	–
C[C@@H](N)[C@H]1CC[C@H](C(=O)Nc2ccncc2)CC1 [Y 27632]	–	–	–	had no effect
